pIC50: −log10 of the molar value.

What is called pIC50 is the IC50 on a negative log10 scale, so that one unit is a factor of ten. The low end stands for a high IC50, the high end for a low IC50.

A short description of test [1]: Effect on weight in a model of obesity induced by a hyperlipidic diet. The conditions noted are these: 40 mg/kg/day oral; for gain or loss of weight according to the initial weight, mean: high fat diet, Swiss male mice. It is filed as in vivo, mice. The procedure: 1. Effect of OBE2001 on Weight
The aim of this first in vivo experiment is to determine the anti-obesity effect of OBE2001 in a model of obesity induced by a hyperlipidic diet in mice.
OBE2001 (Acetyl-Ala-Phe-BoroArg) was provided under salt form (molecular weight of 568.3 g/mol). Swiss male mice, 4 weeks of age, were divided into 2 groups of 10 animals each, receiving the following:
Administration of OBE2001 was carried out as a solution in water. Both OBE2001 or vehicle (water used a negative control) were administrated to the animals daily by the oral route in an administration of 5 ml/kg body weight.
Concerning the feeding of the animals, before the experiments (acclimation period), normal diet (reference No. 824050 SDSIDIETEX food) was available ad libitum during the acclimation period. 7 days before the beginning of the study, a hypercaloric High Fat diet ([…], 4.73 Kcal/g; reference 824053 SDSIDIETEX) was given to groups 1 and 2.
Animals were weighed daily from at D-8 (8 days before the beginning of the experiment) then from D-5 to the end of the study. From D1 (first day of the experiment), food was given ad libitum.

Test [2] addresses Enteropeptidase (Homo sapiens, UniProt P98073). Briefly: Enteropeptidase. From the text:
(§1) Table printed on a drawing sheet, Fig. 5
Head of the field: Enteropeptidase
(§2) The patent's description of the figure: FIG. 5 is a Table showing the IC 50 (in nM) of enteropeptidase, various serine proteases and other enzyme families, in the presence of compounds OBE 1999, OBE 2000, OBE 2001 or OBE 2002.
(§3) First copying reader's note: Each column is one compound; each row gives its IC50 against the named enzyme.
Where the first naming reader finds the target: head: Enteropeptidase

Test [3] has as its target Plasmin (Homo sapiens, UniProt P00747). The test can be described thus: Plasmin.
From the text: as §1
Head of the field: Plasmin
as §2, §3
Where the first naming reader finds the target: head: Plasmin

Enteropeptidase, sequence (P98073 2-1019): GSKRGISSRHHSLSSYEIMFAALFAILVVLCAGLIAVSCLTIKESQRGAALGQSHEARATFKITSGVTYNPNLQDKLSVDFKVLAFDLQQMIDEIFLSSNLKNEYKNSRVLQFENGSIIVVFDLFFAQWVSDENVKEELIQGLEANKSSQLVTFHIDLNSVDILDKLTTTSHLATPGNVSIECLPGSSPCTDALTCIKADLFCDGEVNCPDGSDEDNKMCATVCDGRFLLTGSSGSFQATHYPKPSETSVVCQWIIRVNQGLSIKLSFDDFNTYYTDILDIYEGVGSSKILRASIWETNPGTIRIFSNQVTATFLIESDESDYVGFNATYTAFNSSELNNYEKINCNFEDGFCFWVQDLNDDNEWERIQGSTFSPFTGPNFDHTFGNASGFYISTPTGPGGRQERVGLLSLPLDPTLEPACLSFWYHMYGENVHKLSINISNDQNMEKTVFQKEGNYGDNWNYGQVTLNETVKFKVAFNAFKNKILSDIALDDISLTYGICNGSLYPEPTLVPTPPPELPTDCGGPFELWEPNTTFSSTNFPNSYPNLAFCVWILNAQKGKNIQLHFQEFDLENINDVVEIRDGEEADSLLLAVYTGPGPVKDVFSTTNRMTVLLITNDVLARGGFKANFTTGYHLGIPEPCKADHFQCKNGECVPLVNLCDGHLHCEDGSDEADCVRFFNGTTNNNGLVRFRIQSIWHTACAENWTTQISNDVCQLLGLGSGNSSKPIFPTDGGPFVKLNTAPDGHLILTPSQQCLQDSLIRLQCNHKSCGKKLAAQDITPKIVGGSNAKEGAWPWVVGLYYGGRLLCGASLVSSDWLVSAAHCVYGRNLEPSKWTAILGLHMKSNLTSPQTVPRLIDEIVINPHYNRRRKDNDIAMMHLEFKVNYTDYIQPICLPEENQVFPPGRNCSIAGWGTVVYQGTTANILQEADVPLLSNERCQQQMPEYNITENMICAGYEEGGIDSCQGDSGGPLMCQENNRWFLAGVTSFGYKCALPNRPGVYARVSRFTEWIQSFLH
Plasmin, sequence (P00747 97-810): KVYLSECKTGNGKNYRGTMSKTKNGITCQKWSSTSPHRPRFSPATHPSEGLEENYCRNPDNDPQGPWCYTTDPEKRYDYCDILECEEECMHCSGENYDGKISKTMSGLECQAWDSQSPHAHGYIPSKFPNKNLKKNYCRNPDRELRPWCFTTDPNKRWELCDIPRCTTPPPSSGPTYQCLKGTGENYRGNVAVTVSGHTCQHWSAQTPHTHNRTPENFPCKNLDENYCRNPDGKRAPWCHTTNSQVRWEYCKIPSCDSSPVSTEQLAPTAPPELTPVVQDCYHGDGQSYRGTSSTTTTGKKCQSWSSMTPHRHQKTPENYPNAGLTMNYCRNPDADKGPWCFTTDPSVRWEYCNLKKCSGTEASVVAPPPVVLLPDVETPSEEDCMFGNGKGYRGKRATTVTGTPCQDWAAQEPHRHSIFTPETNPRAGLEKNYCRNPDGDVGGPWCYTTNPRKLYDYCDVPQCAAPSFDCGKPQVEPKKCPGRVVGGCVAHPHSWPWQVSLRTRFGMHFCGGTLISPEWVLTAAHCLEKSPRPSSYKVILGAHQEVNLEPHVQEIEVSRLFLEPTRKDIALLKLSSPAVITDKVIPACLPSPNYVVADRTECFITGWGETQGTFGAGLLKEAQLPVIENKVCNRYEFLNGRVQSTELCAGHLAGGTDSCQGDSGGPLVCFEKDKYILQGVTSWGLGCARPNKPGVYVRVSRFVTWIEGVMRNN

Take `CC(=O)N[C@@H](C)C(=O)N[C@@H](Cc1ccccc1)C(=O)N[C@@H](CCCNC(=N)N)B1OC2C[C@@H]3C[C@@H](C3(C)C)[C@]2(C)O1` (stereo partly shown) [OBE2001]: in test [1] (significant from day 4, highly significant from day 8), the “weight of treated mice versus control group” value is “significantly lower”. The “gain or loss of weight according to the initial weight, mean” value (“gain or loss of weight according” for short) in test [1] (D1) was -2.7 g; in test [1] (D2), -1.2 g; in test [1] (D3) it was -0.8 g; in test [1] (D4), 0.2 g; in test [1] (D5), 0.7 g; in test [1] (D6) it was 1.0 g. The “gain or loss of weight according” value is listed as 0.9 g in test [1] (D7); 1.3 g in test [1] (D8); 1.0 g in test [1] (D9); 1.1 g in test [1] (D10); 0.5 g in test [1] (D11); 1.8 g in test [1] (D12). Besides, in test [1] (D13), the “gain or loss of weight according” value was found to be 2.0 g. The values for the pIC50 in test [2] and in test [3] were 8.14 and 7.66, respectively.
